Literature values in publication PMC5501742 (Cancer discovery, 2017).

Conditions: cited from earlier work

Nc1cc(C(F)(F)F)c(-c2cc(N3CCOCC3)nc(N3CCOCC3)n2)cn1 [Buparlisib]
frequent treatment-related AEs: rash, hyperglycemia, diarrhea, and mucositis
